# Laboratory results: patent publication US10287616B2, “Label free biosensors, gram-negative bacteria detection, and real-time and end point determination of antibiotic effects” (priority 2015, dated 2019)
# Like-named read-outs stand apart in the source and are kept apart here.
# Key:
# E. coli W1485 [1] = experiment: Real time experiment, SWV signal after 3 hours of incubation with antibiotic; assay type: cell-based, Escherichia coli; conditions: 30 mg/L antibiotic; for SWV sensor signal: without antibiotic 0.37 μA
# Description: Electrochemical measurements were performed on a GAMRY 4-channel electrochemical workstation. A three-electrode electrochemical cell composed of a Con A sensor as working electrode, platinum wire as counter electrode and Ag/AgCl (saturated KCl) electrode as reference electrode, was used. Square wave voltammetric measurements were performed under ambient conditions (21-23° C.). Each measurement had been repeated at least three times with independently prepared Con A sensors.
# For the real time measurements, Con A sensor was mounted in a biosensor cell containing 1 mL of 10 mM HEPES buffer (pH 7.4). Real time QCM measurements were obtained for each experimental step. First, 1 μL of 5×10^8 cells/mL E. coli obtained from the stationary phase was added into the biosensor cell. When frequency reached a constant value, it was washed with 1 mL of 10 mM HEPES buffer to remove the unbound E. coli. […] The frequency changes vs time and the damping resistance vs time were recorded by QCM.
# Different types of antibiotics have differing abilities to alter the LPS properties and subsequent reduction in their binding. This can be used as an indicator for the antibiotic effects for killing the bacteria or inhibiting their growth. The biosensor ability to quantitatively measure these parameters real time was tested. For that purpose, the Con A sensor was exposed to 1 μL of 5×10^8 cells/mL E. coli to capture the bacteria via Con A-LPS binding. The unbound E. coli was removed by washing with 1 mL of 10 mM HEPES buffer. […] In the three separate measurements shown in FIG. 25A, it can be clearly seen that the initial parts of the curves which are related to E. coli immobilization are almost coinciding to each other. This real time QCM measurement also allows us to observe the reproducibility of the sensor performance. In the last parts of the curves, when different antibiotics are added, their variable effects in killing the bacteria and reducing their binding caused a variable shift of the frequency. This shift was opposite in direction to what was obtained by bacterial addition which is indicative of reduced binding. These responses (shown in the inset) provided the quantitative details of this effect. […] Due to real time nature of this experiment, the frequency and damping resistance change were much smaller than that of FIGS. 24A and 24B. This confirms that the antibiotic drug effect on LPS is a slow process but the high sensitivity sensor disclosed herein allows such subtle changes to be measured. Moreover, the results of the QCM and Electrochemical measurements are validating each other again. […]
# E. coli W1485 [2] = experiment: End point antibiotic susceptibility test with Con A biosensor, square wave voltammetry readout; assay type: cell-based, Escherichia coli; conditions: 18 hours, FIG. 24B inset
# Description: In the end point measurement, four samples containing 2×10^5 cells/mL of E. coli obtained from log phase in fresh LB culture were prepared. […] The four samples were incubated for 18 hours, 37° C., 280 rpm on an orbital environmental shaker. Finally, 1 μL of the E. coli culture from the each prepared sample was introduced to the Con A biosensor in 1 mL of 10 mM HEPES buffer (pH 7.4) for QCM and electrochemical biosensor measurements, respectively. The sample without addition of any antibiotic was used as control.
# The concentrations used were based on the literature and current clinically used dosages. The sample without any antibiotic was used as a control. As mentioned above, E. coli W1485 was used as the model Gram-negative bacterial analyte. E. coli W1485 is a “semirough” bacterial strain in which the intact LPS core is capped by a single O-antigen subunit consisting of glucose, N-acetylglucosamine, galactose, and rhamnose in the ratio 1.8:1.0:0.7:0.6, which has been confirmed by the sodium dodecyl sulfate polyacrylamide gel electrophoresis (SDS-PAGE) method. Con A binds specifically at α-D-mannosyl and α-D-glucosyl residues (two hexoses differing only by the alcohol on carbon 2) in the terminal position of ramified structures from β-glycans (reach in α-mannose, or hybrid and biantennary glycanes complexes).
# E. coli W1485 [3] = conditions: for ΔF (Hz): 10 mg/L antibiotic, FIG. 27; for ΔR (Ω) / ΔR/R0 (%): 10 mg/L
# Description: Experiments were also performed to study the concentration of the antibiotics and the length of the incubation time of antibiotics for their ability to kill or inhibit the growth of the bacteria. Different concentrations of each antibiotic were added to 5×10^8 cells/mL E. coli respectively, and then incubated at 37° C. and 280 rpm on the shaker. After 3 hours of incubation, 1 μL of antibiotic treated E. coli culture was added to the Con A sensor cell containing 1 mL of 10 mM HEPES buffer (pH 7.4) for QCM measurements, respectively. […] 1 μL of each antibiotic treated E. coli was taken at different incubation times (i.e., 0, 1, 2, 3 hours) and was added into the Con A senor cell containing 1 mL of 10 mM HEPES buffer (pH 7.4) for QCM measurements.
# In most studies dealing with antibiotic-induced LPS release, bioreactive endotoxin has been measured by means of the Limulus amoebocyte lysate (LAL) assay, which involves an enzymatic reaction triggered by the core region of LPS. […] However, some antibiotics (i.e., aminoglycoside) are known to suppress the LAL reaction, which limits the application of LAL. Reproducible ELISA also can be used to detect LPS. […] A QCM is known to provide a very sensitive mass measuring device and dispense with the time- and cost-demanding labeling step and also eliminates any possible interference of the “true” binding process due to the presence of the labels.
SMILES,"SWV sensor signal, fold of signal without antibiotic (E. coli W1485 [1]) [fold]",SWV sensor signal (E. coli W1485 [1]) [μA],increase of the SWV signal as compared to control (E. coli W1485 [2]; 0.1 mg/L antibiotic) [folds],ΔF (Hz) (E. coli W1485 [3]; incubation time 0 h),ΔF (Hz) (E. coli W1485 [3]; incubation time 1 h),ΔF (Hz) (E. coli W1485 [3]; incubation time 2 h),ΔF (Hz) (E. coli W1485 [3]; incubation time 3 h),ΔR (Ω) (E. coli W1485 [3]; 0 h),ΔR/R0 (%) (E. coli W1485 [3]; 0 h),ΔR (Ω) (E. coli W1485 [3]; 1 h),ΔR/R0 (%) (E. coli W1485 [3]; 1 h),ΔR (Ω) (E. coli W1485 [3]; 2 h),ΔR/R0 (%) (E. coli W1485 [3]; 2 h),ΔR (Ω) (E. coli W1485 [3]; 3 h),ΔR/R0 (%) (E. coli W1485 [3]; 3 h),increase of the SWV signal as compared to control (E. coli W1485 [2]; 10 mg/L antibiotic) [folds]
CO/N=C(\C(=O)N[C@@H]1C(=O)N2C(C(=O)O)=C(CSc3nc(=O)c(=O)[nH]n3C)CS[C@H]12)c1csc(N)n1 [ceftriaxone],2.50,0.92,4.8,356,256,223,187,15 Ω,4.9,15.5 Ω,5.0,16.1 Ω,5.2,16.6 Ω,5.4,–
CN(C)[C@@H]1C(O)=C(C(N)=O)C(=O)[C@@]2(O)C(O)=C3C(=O)c4c(O)cccc4[C@@](C)(O)[C@H]3C[C@@H]12 [tetracycline],–,0.65,–,378,329,279,244,16 Ω,5.3,17 Ω,5.6,16 Ω,5.2,15.6 Ω,5.1,2
O=C(O)c1cn(C2CC2)c2cc(N3CCNCC3)c(F)cc2c1=O [ciprofloxacin],–,0.89,7.2,–,–,–,–,15 Ω,4.9,17 Ω,5.6,18.6 Ω,6.1,14 Ω,4.6,–
